Reference: ChEMBL document CHEMBL1201862, “PubChem BioAssay data set” (2004)
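Step 1: Grow cells in 96-well plates. Step 2: Expose to compound for 48 hours at 5 concentrations. Step 3: Interpolate endpoints linearly; if unreached, use highest concentration. GI50 = concentration required for 50% inhibition of growth.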 Active and inactive are the calls of the source. Cut-off read from the data, not from the text of the source: active = GI50 up to about 1.1 µM and inactive = higher.

Key:
Assay in all cases: NCI tumour cell line growth inhibition, 48 h
[1] = system: HCT-15
[2] = system: U-251
[3] = system: PC-3
[4] = system: SNB-75
[5] = system: A549
[6] = system: SK-OV-3
[7] = system: HOP-62
[8] = system: RXF 393
[9] = system: SK-MEL-5
[10] = system: OVCAR-8
[11] = system: KM12
[12] = system: TK-10
[13] = system: NCI/ADR-RES
[14] = system: M14
[15] = system: Malme-3M
[16] = system: HT-29
[17] = system: SF-539
[18] = system: SR
[19] = system: RPMI-8226
[20] = system: IGROV-1

SMILES	GI50 [1]	GI50 [2]	GI50 [3]	GI50 [4]	GI50 [5]	GI50 [6]	GI50 [7]	GI50 [8]	GI50 [9]	GI50 [10]	GI50 [11]	GI50 [12]	GI50 [13]	GI50 [14]	GI50 [15]	GI50 [16]	GI50 [17]	GI50 [18]	GI50 [19]	GI50 [20]
O=C(c1ccc(Cl)c(Cl)c1)N(C(=S)OC12CC3CC(CC(C3)C1)C2)c1ccccc1	33.3 µM	34.6 µM (inactive)	39.9 µM (inactive)	93.1 µM (inactive)	32.2 µM (inactive)	36.6 µM (inactive)	44.6 µM (inactive)	> 100 µM (inactive)	19.5 µM (inactive)	41.5 µM (inactive)	33.7 µM (inactive)	66.8 µM (inactive)	30.1 µM (inactive)	20.8 µM (inactive)	34.9 µM (inactive)	29.6 µM (inactive)	36.6 µM (inactive)			
COc1cc(/C=C2/SC(c3ccccc3)N(c3cccc(NC(C)=O)c3)C2=O)cc(OC)c1OC (stereo unspecified)	46.9 µM				47.4 µM (inactive)	75 µM (inactive)	81.8 µM (inactive)	24.8 µM (inactive)	24.8 µM (inactive)	52.6 µM (inactive)	39.1 µM (inactive)	> 100 µM (inactive)	40.7 µM (inactive)	27.7 µM (inactive)	28.8 µM (inactive)	38.6 µM (inactive)	49.3 µM (inactive)	23.4 µM (inactive)	30.3 µM (inactive)	
CCOc1ccc(/N=N/C2C(=O)N(C(=O)CC(=O)Nc3ccccc3OC)N=C2C)cc1 (stereo unspecified)	14.5 µM	> 36 µM (inactive)	> 100 µM (inactive)	0.916 µM (active)	> 43.3 µM (inactive)	> 37.2 µM (inactive)	> 33.4 µM (inactive)	12.5 µM (inactive)	32.3 µM (inactive)	59.8 µM (inactive)	4.35 µM (inactive)	> 33.1 µM (inactive)	30 µM (inactive)	25.5 µM (inactive)	21.1 µM (inactive)	4.13 µM (inactive)	7.83 µM (inactive)		45 µM (inactive)	5.43 µM (inactive)
CO[C@H](c1ccccc1)[C@H](C)N(C)c1ccc2ccccc2c1C1=NC(C)(C)CO1	14.6 µM	16 µM (inactive)		15.5 µM (inactive)	15.9 µM (inactive)	19.2 µM (inactive)	21 µM (inactive)	13.8 µM (inactive)	88.3 µM (inactive)	13.8 µM (inactive)	17.1 µM (inactive)	22.9 µM (inactive)		16.5 µM (inactive)	16.3 µM (inactive)	10.7 µM (inactive)	16.2 µM (inactive)	13.3 µM (inactive)	15.6 µM (inactive)	33.1 µM (inactive)
CCOP(=O)(/C=C/n1cc(C)c(=O)[nH]c1=O)OCC	> 100 µM	> 100 µM (inactive)	> 100 µM (inactive)	> 100 µM (inactive)	> 100 µM (inactive)	> 100 µM (inactive)	> 100 µM (inactive)	> 100 µM (inactive)	> 100 µM (inactive)	> 100 µM (inactive)	> 100 µM (inactive)	> 100 µM (inactive)	> 100 µM (inactive)	> 100 µM (inactive)		> 100 µM (inactive)	> 100 µM (inactive)		> 100 µM (inactive)	> 100 µM (inactive)
CC(=O)OCCCCN1C(=O)CSc2ccccc21	> 100 µM	> 100 µM (inactive)	> 100 µM (inactive)	> 100 µM (inactive)	> 100 µM (inactive)	> 100 µM (inactive)	> 100 µM (inactive)	> 100 µM (inactive)	66.5 µM (inactive)		> 100 µM (inactive)	> 100 µM (inactive)					> 100 µM (inactive)	> 100 µM (inactive)	> 100 µM (inactive)	> 100 µM (inactive)
CC(C)C1CC=NN1C(=O)OC(C)(C)C (stereo unspecified)	> 100 µM			> 100 µM (inactive)	> 100 µM (inactive)	> 100 µM (inactive)	> 100 µM (inactive)	> 100 µM (inactive)	> 100 µM (inactive)	> 100 µM (inactive)	> 100 µM (inactive)	> 100 µM (inactive)	> 100 µM (inactive)	> 100 µM (inactive)		> 100 µM (inactive)	> 100 µM (inactive)	> 100 µM (inactive)	> 100 µM (inactive)	> 100 µM (inactive)
c1ccc(CN2CCC(Nc3ccccc3)(c3nnnn3Cc3ccccc3)CC2)cc1	27.5 µM	22.6 µM (inactive)		22.7 µM (inactive)	32.2 µM (inactive)	70.1 µM (inactive)	45.7 µM (inactive)	27.4 µM (inactive)	13 µM (inactive)	32.8 µM (inactive)	13.3 µM (inactive)	29.2 µM (inactive)	24.5 µM (inactive)	16.1 µM (inactive)	18.5 µM (inactive)	11.6 µM (inactive)	20.5 µM (inactive)	8.77 µM (inactive)	12.9 µM (inactive)	28.1 µM (inactive)
Oc1ccccc1/C=C/c1csnn1	> 51.4 µM	> 100 µM (inactive)		> 100 µM (inactive)	> 100 µM (inactive)	> 100 µM (inactive)	> 100 µM (inactive)	> 100 µM (inactive)	> 100 µM (inactive)	> 100 µM (inactive)	> 100 µM (inactive)	> 100 µM (inactive)		> 100 µM (inactive)	> 100 µM (inactive)	> 100 µM (inactive)	> 100 µM (inactive)	> 46.2 µM (inactive)	> 100 µM (inactive)	> 100 µM (inactive)
O=NN(CCCl)C(=O)N[C@H]1CC[C@H](CC(=O)O)CC1	> 100 µM	33.2 µM (inactive)		50.4 µM (inactive)	87.3 µM (inactive)	> 100 µM (inactive)	> 94.6 µM (inactive)	> 100 µM (inactive)	> 100 µM (inactive)	> 100 µM (inactive)	> 100 µM (inactive)	> 100 µM (inactive)	> 100 µM (inactive)	> 100 µM (inactive)	> 82.2 µM (inactive)	> 100 µM (inactive)	26.1 µM (inactive)	32.2 µM (inactive)	33.1 µM (inactive)	> 100 µM (inactive)
CCOP(=O)(O)C(C)(C)NC	> 100 µM	> 100 µM (inactive)	> 100 µM (inactive)		> 100 µM (inactive)	> 100 µM (inactive)	> 100 µM (inactive)	> 100 µM (inactive)	> 100 µM (inactive)	> 100 µM (inactive)	> 100 µM (inactive)	> 100 µM (inactive)	> 100 µM (inactive)	> 100 µM (inactive)	> 100 µM (inactive)	> 100 µM (inactive)	> 100 µM (inactive)		> 100 µM (inactive)	> 100 µM (inactive)
O=c1[nH]c2ccc([N+](=O)[O-])c(Cl)c2c2ccccc12	3.56 µM	4.43 µM (inactive)		9.04 µM (inactive)	4.7 µM (inactive)	1.66 µM (inactive)	10.8 µM (inactive)		3.84 µM (inactive)	1.29 µM (inactive)	0.33 µM (active)	1.37 µM (inactive)	4.98 µM (inactive)	4.81 µM (inactive)	11.6 µM (inactive)	0.887 µM (active)	1.1 µM (active)	1.85 µM (inactive)	0.586 µM (active)	5.87 µM (inactive)
COCNC(=NC#N)NCOC	> 42.9 µM	> 58.5 µM (inactive)		> 100 µM (inactive)	> 71.9 µM (inactive)	> 100 µM (inactive)	> 100 µM (inactive)	> 42 µM (inactive)	> 100 µM (inactive)	> 100 µM (inactive)	> 52 µM (inactive)	> 100 µM (inactive)		> 100 µM (inactive)	> 100 µM (inactive)	> 100 µM (inactive)	> 100 µM (inactive)	20.2 µM (inactive)	> 49.3 µM (inactive)	> 100 µM (inactive)
Cn1ccnc1CCc1c(Cl)cccc1Cl	> 100 µM	> 100 µM (inactive)		> 100 µM (inactive)	> 100 µM (inactive)	> 100 µM (inactive)	> 100 µM (inactive)	> 100 µM (inactive)	> 100 µM (inactive)	> 100 µM (inactive)	> 100 µM (inactive)	> 100 µM (inactive)		> 100 µM (inactive)	> 100 µM (inactive)	> 100 µM (inactive)	> 100 µM (inactive)	> 100 µM (inactive)	> 100 µM (inactive)	> 100 µM (inactive)
CC1CCC2(OC1)OC1CC3C4CC=C5CC(OC6OC(CO)C(OC7OC(C)C(OC8OC(C)C(O)C(O)C8O)C(O)C7O)C(O)C6OC6OC(C)C(O)C(O)C6O)CCC5(C)C4CCC3(C)C1C2C (stereo unspecified)	1.51 µM	0.65 µM (active)	0.724 µM (active)	0.372 µM (active)	0.312 µM (active)	1.07 µM (active)	2.56 µM (inactive)	0.583 µM (active)	1.43 µM (inactive)	0.326 µM (active)	0.16 µM (active)	1.39 µM (inactive)		1.05 µM (active)	0.363 µM (active)	1 µM (active)	0.394 µM (active)	0.0196 µM (active)	0.382 µM (active)	1.3 µM (inactive)
N#CC(=S)Nc1cccc(Cl)c1	27.9 µM	34.8 µM (inactive)	32.7 µM (inactive)	23.9 µM (inactive)	23.8 µM (inactive)	33.3 µM (inactive)	43.8 µM (inactive)	26 µM (inactive)	4.11 µM (inactive)	32.3 µM (inactive)	24.8 µM (inactive)	35.4 µM (inactive)	30.7 µM (inactive)	27.5 µM (inactive)	30.3 µM (inactive)	19.5 µM (inactive)	25.9 µM (inactive)		5.38 µM (inactive)	5.13 µM (inactive)
